For data set [1], the system named is A549. In words: 3D cell proliferation assay (soft agar), A549. Format: cell-based, human. Conditions: 3D soft agar. Here is the method:
(§1) Drug nsl-8 was further subjected to a 3D cell proliferation assay for assessing its potential in inhibiting the growth of NSCLC tumors. The same four NSCLC cell lines used in 2D proliferation assays were grown in soft agar and the drug was added after the agar has solidified. The drug added cells were then incubated several days until colonies have formed in the solvent control. Subsequently, Alamar Blue which was a cell viability reagent was added and the corresponding fluorescence released was measured as an indirect quantification of colony growth in soft agar.
(§2) For each cell line, some 96 well culture plates were prepared. 100 μL of the soft agar bottom layer (0.6% final concentration in complete medium) was poured and left to solidify. 50 μL of the soft agar top layer (0.4% final concentration) containing the corresponding cells and cell number were then added on top, solidified and such 96 well plates were incubated overnight at 37° C. in 10% CO2. Next day, drugs were added at indicated final concentrations into the inner wells of the plate. Subsequently, the assays were incubated in cell culture incubators for the indicated period of time. Finally, the assays were developed using Alamar Blue and upon 3-5 h of incubation at 37 ° C. fluorescence intensity was determined (excitation: 560 nm, emission: 590 nm). […]

Data set [2] concerns A549. In words: 2D cell proliferation assay (Alamar Blue), A549. Format: cell-based, human. Particulars: A549, 72 h. From the text: (§3) Nsl-8 was subjected to 2D cell proliferation assays using four NSCLC cell lines (A549 (human adenocarcinomic alveolar basal epithelial cells with k-ras gene mutation), H1299 (human non-small cell lung carcinoma cell line with p53 mutation), H460 (human non-small cell lung carcinoma cell line with k-ras gene mutation), and HCC827 (human NSCLC cells with EGFR mutation of deletion from E746 to A750)) and the results were presented in Table 2. There were eight concentrations used for each drug for determining its IC50. […]. Actinomycin D was a chemotherapeutic drug simply used as a quality control for all the experiments.
(§4) In the 2D cell proliferation assay, cells were cultured in DMEM containing 10% FCS and Penicillin/Streptomycin. For the assays, cells were seeded in 150 μL medium on a 96-well cell culture plate and incubated at 37° C. overnight before the compounds were added. Compounds were prepared as predilution which was 16 fold concentrated to the final assay concentration. A day after cell seeding, 10 μL of prediluted compounds was added to the cells (1:16 dilution). Treatment of cells with 0.1% DMSO or 1% DMSO (for the two top concentrations of nsl-8) and 1.0E-05 M Staurosporine was served as high control (100% viability) and low control (0% viability), respectively. Measurement of the impact of compounds on cell viability was performed as follows: 5000 cells (A549 and HCC827) or 2500 cells (H1299 and H460) were seeded in the inner wells of 96-well-plates in 150 μL complete medium. Next day, compounds were added to the medium to reach the final concentration and then incubated at 37° C. in 5% or 10% CO2 depending on the medium for 72 h. Subsequently 10 μL Alamar Blue reagent was added and fluorescence at 590 nm was measured after 5 h incubation at 37° C. in 5% CO2 using a fluorometer.
(§5) Raw data were converted into percent cell viability relative to high control (solvent 0.1% DMSO or 1% DMSO for the two top concentrations of drug nsl-8) and low control (1.0E-05 M Staurosporine), which were set to 100% and 0%, respectively.
A general note: Resazurin is reduced to fluorescent resorufin, in cell work by metabolically active cells.

Data set [3] has as its system H460. In words: 2D cell proliferation assay (Alamar Blue), H460. Format: cell-based, human.
Source text: as §3, §4, §5

In data set [4] the test system is H1299. In words: 2D cell proliferation assay (Alamar Blue), H1299. The data set is classed as cell-based, human.
Source text: as §3, §4, §5

Data set [5] concerns HCC827. In words: 3D cell proliferation assay (soft agar), HCC827. The data set is classed as cell-based, human. Particulars: 3D soft agar. As for the experimental part: as §1, §2
Data set [6] relates to H460. In words: 3D cell proliferation assay (soft agar), H460. The data set is classed as cell-based, human. Particulars: 3D soft agar. Here is the method: as §1, §2
Data set [7] deals with H1299. In words: 3D cell proliferation assay (soft agar), H1299. The data set is classed as cell-based, human. Particulars: 3D soft agar. As for the experimental part:
as §1, §2

The test system of data set [8] is HCC827. In words: 2D cell proliferation assay (Alamar Blue), HCC827. Format: cell-based, human. Particulars: HCC827, 72 h. Here is the method: There were eight concentrations used for each drug for determining its IC50. […] Actinomycin D was a chemotherapeutic drug simply used as a quality control for all the experiments.
as §4, with “Compounds were prepared as predilution which was 16 fold concentrated to the final assay concentration.” left out, “h.” for “h. Subsequently 10 μL Alamar Blue reagent was added and fluorescence at 590 nm was measured after 5 h incubation at 37° C. in 5% CO2 using a fluorometer.”
as §5

In another data set the test system is A549 implanted tumors. In words: Subcutaneous A549 xenograft model, groups 2a-2c, o.p. Particulars: for Tumor inhibition rate (%): A549, o.p. once daily, NSL-8 70 mpk, Tarceva 20 mpk. Here is the method: The antitumor efficacy of the drug lead nsl-8 searched was studied using the subcutaneous xenografted A549 and HCC827 lung cancer tumor models in vivo. […] Mice were maintained in individual ventilated cages (IVC, max. 4 mice/cage) at constant temperature and humidity. Animal weights were determined three times (Monday, Wednesday and Friday) for groups 1a and 1b or two times (Monday and Thursday) for groups 2a-2c and 3a-3c animals. Animal behaviour was monitored daily.
On day 0, either 2×10^6 A549 or 2×10^6 HCC827 tumor cells in 100 μL PBS were implanted into the subcutaneous space of the left flank of all corresponding BALB/c nude and SCID mice, respectively. In the following, tumor sizes were determined by caliper measurement. Tumor sizes were calculated according to the formula W^2×Lg/2 (Lg=length and W=the perpendicular width of the tumor, L>W). On day 48 or 30, after mean tumor volumes had reached approx. 100 mm^3, the corresponding tumor-bearing animals were randomized into 2 groups of 8 (A549 model: groups 1a and 1b) or 10 animals (A549 model: groups 2a and 2b) according to tumor sizes. On day 24 or 28, after mean tumor volumes had reached approx. 100 mm^3, the corresponding tumor-bearing animals were randomized into 2 groups of 10 animals (HCC827 model: groups 3a and 3b) according to tumor sizes. […] The percentage of tumor growth inhibition (TGI) was calculated using the following formula: […]
where T and C represent the mean tumor volume of the treatment and the control group, respectively.
The solution was aliquoted into several 15 ml sterile centrifuge tubes in 650 μl quantity per tube and then stored frozen at −80° C. until use. […] Animals of group 1b received 40 mg/kg nsl-8 dosage solution once daily through i.p. route on days 48-52 and 62-66, while those of groups 2b and 3b received 70 mg/kg nsl-8 dosage solution once daily through o.p. route on days 1-14 (group 2b) and days 1-14 (group 3b), respectively (Table 4).
Groups 1a and 1b (A549 model) were terminated on day 69, while groups 2a-2c (A549 model) and 3a-3c (HCC827 model) were terminated on day 15. At necropsy, animals were killed by cervical dislocation. Primary tumor weights and volumes were determined. The tumor volume and weight were analysed using descriptive data analysis (Mean, SEM, Median). Statistical analysis of efficacy data was performed using the unpaired t-test. All the data analyses were performed using GraphPad Prism 5 from GraphPad Software, Inc., San Diego, USA.
The serum level of blood urea nitrogen (BUN) was measured for assessing the renal function while those of alanine aminotransferase (ALT) and aspartate aminotransferase (AST) were measured using Ektachem DT system (Johnson & Johnson Clinical Diagnostics) for assessing the liver function. The EDTA treated anticoagulated blood samples were also collected for making a complete peripheral blood count by using a Hematology Analyzer (Sysmex, XT-1800i).
For this study, 0.161 ml nsl-8 stock solution made in DMSO was mixed with 1.339 ml 0.9% w/v saline so that the volume of a final dosage solution prepared to feed an animal was 1.5 ml and containing 10% DMSO. Therefore, both administration routes and vehicles used in treating groups 2a-2b and 3a-3b animals were quite different from that used in treating groups 1a-1b animals.

This is an account of results in patent US20160113895A1, “Novel Use of Adapalene in Treating Esophageal Cancer and Gastrointestinal Stromal Tumor” (Biodelight Biotech Inc., priority 2013, published 2016).

pIC50: −log10 of the molar value. *1 amine or outer side, *2 acyl side, *3 side chain or, on linkers, in order; H or OH if unused. Where a SMILES comes first, the peptide text is derived from it. Bridges are numbered along the chain shown (N, C = ends). Roman numbers before positions name the chains, in order. [ ]: non-standard residue; d: D form. Actinocin(9to1) = Cc1c2oc3c(C)ccc(C(=O)[*:1])c3nc-2c(C(=O)[*:2])c(N)c1=O; NMeV = CN[C@H](C(=O)O)C(C)C; Sar = CNCC(=O)O A value given as a limit tells only on which side of the number the result lay.

Broadly, the pIC50 is the IC50 on a negative log10 scale, so that one unit is a factor of ten. For `Cc1c2oc3c(C)ccc(C(=O)N[C@@H]4C(=O)N[C@H](C(C)C)C(=O)N5CCC[C@H]5C(=O)N(C)CC(=O)N(C)[C@@H](C(C)C)C(=O)O[C@@H]4C)c3nc-2c(C(=O)N[C@@H]2C(=O)N[C@H](C(C)C)C(=O)N3CCC[C@H]3C(=O)N(C)CC(=O)N(C)[C@@H](C(C)C)C(=O)O[C@@H]2C)c(N)c1=O` [Actinomycin D] (I: T[dV]P[Sar][NMeV] / II: T[dV]P[Sar][NMeV]; ester I:1-I:C, II:1-II:C; linker I:N-II:N via Actinocin(9to1)), the pIC50 with A549 [1] is 9.08; in the data set on A549 [2] (2D, read-out: IC50), 9.04; in the data set with H460 [3] (2D, H460, 72 h, read-out: IC50), 9.38; in the data set with H1299 [4] (2D, H1299, 72 h, read-out: IC50), 9.51; in the data set on HCC827 [5], 9.62; with H460 [6], 9.17. The pIC50 in the data set with H1299 [7] was 9.09; with HCC827 [8], 7.92.
Take `C#Cc1cccc(Nc2ncnc3cc(OCCOC)c(OCCOC)cc23)c1` [Erlotinib]: the pIC50 in the data set with A549 [2] (Homo sapiens) is less than 5.00; with H460 [3] (Homo sapiens, NCI-H460, 72 h), less than 5.00; with H1299 [4] (Homo sapiens, NCI-H1299, 72 h), less than 5.00. Further, in the data set on A549 implanted tumors (A549 model, peripheral blood at end-point, nsl-8 70 mg/kg, Tarceva 20 mg/kg o.p.), the “cell counts of white blood cell, red blood cell, or platelet versus vehicle” value is given as “no significant difference”. Moreover, the “serum levels of BUN, ALT, and AST among treatment groups” value with A549 implanted tumors (A549 model, upon completion of the experiments) is given as “no significant difference”. The “Tumor inhibition rate (%)” value is recorded as 0% in the data set with A549 implanted tumors (Day 0); −16.7% with A549 implanted tumors (Day 3); −19.0% in the data set with A549 implanted tumors (Day 7); −22.0% with A549 implanted tumors (Day 10); −29.6% with A549 implanted tumors (Day 14). Moreover, the “inhibition in growth of A549 implanted tumors (in words)” value in the data set on A549 implanted tumors (group 2c, 20 mg/kg o.p. daily) was “no inhibition”.
